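Values below derive from 48-hour exposures of cells grown in 96-well plates, with endpoints linearly interpolated between the two concentrations bracketing the appropriate inhibition level. At the GI50, growth is halved. Definition used: TGI = concentration required for complete inhibition of growth.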

The term GI50 denotes the concentration at which growth is held to half of that of the control. One may read the TGI as the concentration giving total growth inhibition. Read a low TGI as greater sensitivity of the cells.

In this experiment the test system is MDA-MB-468 breast. Briefly: DTP human tumour cell line panel, 48 h.

For `CC[C@@H](C)Nc1cc(C(=O)NC2CC3CCC(C2)N3c2ccc(C(=O)C3CC3)cn2)c(C)cc1C(N)=O` (stereo partly specified), the GI50 is 0.0189 µM and the TGI was determined as 0.0838 µM.
The matching figures for `CCCCCCN(C)Cc1ccc(OCCOc2ccc(CN(C)CCCCCC)cc2)cc1`: 1.16 µM and 2.48 µM.
For `O=C(Nc1cccc(Cl)c1)c1cc(N=Nc2ccc([N+](=O)[O-])cc2Cl)ccc1O`, in that order: 2.91 µM and greater than 100 µM.
For `O=S(=O)(Nc1ccc2ccccc2c1)c1ccc(-c2cnc(C3CC3)o2)cc1`, in that order: 0.327 µM and 12 µM.
In the case of `CC(C)(C)c1ccc(O)c(CN(Cc2cc(C(C)(C)C)ccc2O)C2CCCCC2)c1`, the GI50 was 4.4 µM and the TGI came to 19.2 µM.
The matching figures for `CC(C)CCC(=O)[C@@H](C)[C@H]1[C@@H](OC2OCC(O)C(O)C2NS(C)(=O)=O)C[C@H]2[C@@H]3CC=C4C[C@@H](O)CC[C@]4(C)[C@H]3CC[C@]12C` (stereo partly specified): 3.38 µM and 11.2 µM.
The matching figures for `COC(=O)c1ccc2c(c1)c1c(C)c3ccncc3c(C)c1n2C`: 0.767 µM and 15.2 µM.
Regarding `Cc1nnc(-c2ccc(C)c(-c3ccc(C(=O)NCc4ccc(Cl)cc4)cc3)c2)o1`, the GI50 is 2.91 µM and the concentration for total growth inhibition (TGI) turned out to be 15.1 µM.
Consider `CC(=O)C1CCC2C3CC=C4CC(SC(=N)N)CCC4(C)C3CCC12C` (stereo unspecified), for which the GI50 was 1.54 µM and the TGI is 2.9 µM.
As to `CN1CCN(Cc2ccc(NC(=O)c3cncc(C#Cc4cnn5ccccc45)c3)cc2C(F)(F)F)CC1`, the GI50 is 0.965 µM and the TGI was found to be 2.08 µM.
For `C=C1CCC2C3(C)COC(c4ccc(Cl)cc4)OC3CCC2(C)C1/C=C/C1=CCOC1=O` (stereo unspecified), in that order: 0.502 µM and 6.25 µM.
For `O=C(Nc1cccnc1)c1ccc2ccc3ccc(C(=O)Nc4cccnc4)nc3c2n1`, in that order: 0.0697 µM and 0.442 µM.
The matching figures for `CCOC(=O)c1csc(NC(=O)COc2cccc(/C=C3\CSc4ccccc4C3=O)c2)n1`: 0.0661 µM and 0.185 µM.
Take `COc1cc(-c2ccc(NC(=O)NC3CC3)c(OC)c2)ccc1NC(=O)NC1CC1`: the GI50 was greater than 100 µM and the TGI is greater than 100 µM.
As for `COc1cc(/C=C\c2cc(/C=C\c3ccc(O)c(OC)c3)n(C(=O)CNc3ccc(Cl)cc3)n2)ccc1O`, the GI50 was 3.17 µM and the TGI is 9.69 µM.
With `CCOc1c(C#N)c2c(N)ncnc2n1C1OC(CO)C(O)C1O` (stereo unspecified), the GI50 was 1.75 µM and the TGI came to 5.98 µM.
As to `O=C(Nc1nc(-c2ccc(Cl)cc2)nc2c1sc(=S)n2-c1ccccc1)C(F)(F)F`, the GI50 was 3.79 µM and the TGI amounted to 20.5 µM.
Take `C/C=C(/C)C(=O)OC1C=C(CO)C(=O)C(OC(=O)C(C)(O)C(C)Cl)C1C(C)C` (stereo unspecified): the GI50 is 1.05 µM and the total growth inhibition concentration (TGI) was 2.8 µM.
As to `COc1cc2ncn(-c3cc(OCc4ccccc4C(F)(F)F)c(C(C)=O)s3)c2cc1OC`, the GI50 was greater than 23.3 µM and the TGI is greater than 25 µM.
As to `Oc1ccc(CSc2nnc(-c3ccc(Cl)cc3)o2)c2cccnc12`, the GI50 was 2.47 µM and the TGI was greater than 100 µM.
For `CC[C@]12C=CCN3CC[C@@]4(c5ccc(OC)cc5N(C)[C@H]4[C@@](O)(C(=O)OC)[C@@H]1OC(=O)CCC(=O)N[C@H](Cc1c[nH]c4ccccc14)C(=O)OC)[C@@H]32`, in that order: 1.64 µM and 3.14 µM.
For `CC1(O)Cc2c(O)c3c(c(O)c2CC1O)C(=O)C=CC3=O` (stereo unspecified), in that order: 0.553 µM and 1.93 µM.
In the case of `Nc1nc(N)c2c(n1)NC(c1ccc(Cl)cc1)CC(c1ccc(Nc3nc(NCCO)nc(Nc4ccc(Cl)cc4)n3)cc1)=N2` (stereo unspecified), the GI50 was 1.39 µM and the TGI is 2.79 µM.
For `O=C(Cn1c(C(=O)c2ccccc2)nc2ccccc21)c1ccc(F)cc1`, the GI50 was 2.02 µM and the TGI was 16.6 µM.
The matching figures for `O=C(Nc1ccc2c(c1)OCO2)C(=O)c1c[nH]c2cc(F)ccc12`: 5.7 µM and 67.9 µM.
The matching figures for `CC(C)(C)NC/C(=C\c1ccccc1)C(=O)c1ccccc1`: 0.713 µM and 2.18 µM.
Regarding `COc1ccc(/C=C\c2cc(OC)c(OC)c(OC)c2)c(O)c1O`, the GI50 was 0.0741 µM and the TGI worked out at 21.4 µM.
With `O=C(NNC(=S)Nc1ccccc1)c1ccccn1`, the GI50 is 2.84 µM and the TGI stood at 90.9 µM.
